Read-outs that look alike come from different tables or passages of the source.

For assay [1], the target named is T1, AREL1 Apoptosis-resistant E3 ubiquitin protein ligase 1 (Homo sapiens, UniProt O15033).
T1 construct: endogenous in cells
T1 sequence (O15033 1-823): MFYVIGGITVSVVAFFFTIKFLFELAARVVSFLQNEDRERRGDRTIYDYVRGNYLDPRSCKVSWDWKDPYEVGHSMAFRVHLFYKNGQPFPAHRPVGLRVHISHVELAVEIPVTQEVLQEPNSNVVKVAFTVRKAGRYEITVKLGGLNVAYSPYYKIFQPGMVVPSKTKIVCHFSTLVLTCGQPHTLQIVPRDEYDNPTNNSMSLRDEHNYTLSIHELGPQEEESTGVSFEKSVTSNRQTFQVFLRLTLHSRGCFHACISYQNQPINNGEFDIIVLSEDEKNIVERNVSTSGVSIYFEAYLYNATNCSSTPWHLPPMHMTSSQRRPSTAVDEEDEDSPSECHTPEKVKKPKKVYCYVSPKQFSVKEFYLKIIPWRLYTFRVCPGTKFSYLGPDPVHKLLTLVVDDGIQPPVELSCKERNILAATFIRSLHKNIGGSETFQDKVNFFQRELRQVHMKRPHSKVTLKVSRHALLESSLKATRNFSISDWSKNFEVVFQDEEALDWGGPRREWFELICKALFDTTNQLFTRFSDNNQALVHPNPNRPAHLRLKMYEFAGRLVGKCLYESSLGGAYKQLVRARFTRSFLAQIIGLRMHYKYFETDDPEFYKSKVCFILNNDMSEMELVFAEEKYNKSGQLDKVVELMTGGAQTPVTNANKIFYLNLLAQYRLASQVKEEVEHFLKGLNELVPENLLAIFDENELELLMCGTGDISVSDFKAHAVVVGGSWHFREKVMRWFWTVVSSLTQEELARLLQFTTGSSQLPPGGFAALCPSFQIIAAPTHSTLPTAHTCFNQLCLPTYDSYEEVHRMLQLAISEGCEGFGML
Kind of assay: Cysteine liganding, probe competition. It is filed as binding. The protocol: (§1) Cells were resuspended in cold PBS on ice and sonicated with a probe sonicator to achieve lysis. 200 μL of lysate containing 5 mg/ml proteome was treated with 2 μL of 100× compound stock in a 2-mL deep-well plate. The treated lysate was subsequently incubate at 25° C. for 1 hr with shaking at 600 rpm. The treated lysate was further incubated with 2 μL of 10 mM desthiobiotin iodoacetamide probe at 25° C. for 1 hr with shaking at 600 rpm. Next, the lysate was further treat with 20 μL of solution of PBS containing 11 mM MgSO4 and 2.5% Turbonuclease stock and incubated at 25° C. for 20 minutes with shaking at 600 rpm. 1.7 mL ice-cold acetone was added to each well and incubated at −20° C. for 2 hr, followed by max speed (4200 rpm) spin for 45 min. Acetone was then decanted and the plates were blotted to remove acetone. The plates were then dried in open air for 20 minutes. After drying, the plates were then covered with foil seal and stored at −80° C. overnight.
(§2) The next day, samples were re-suspended in 90 μL of solution of 9M urea, 50 mM ammonium bicarbonate and 10 mM DTT by incubating at 65C for 20 min with shaking at 1500 rpm. Next, samples were cooled to 37° C. and then 10 μL of 500 mM iodoacetamide solution (92.48 mg/ml) was added. The samples were then incubated at 37° C. for 30 min with shaking at 600 rpm.
(§3) ZEBA desalting plates were equilibrated 4 times using 250 μL of 2M urea, 50 mM ammonium bicarbonate solution followed by centrifugation at 1500 rpm for 2 minutes. After equilibration was complete, samples were applied to ZEBA desalting plate and spin at 1500 rpm for 2 min on top of 1 mL 96-well deep-well collection plate to buffer exchange samples. 4 μL of solution containing 25 mM CaCl2 and 0.25 mg/mL trypsin was added to the plate and the plate was then incubated at 37° C. for 2 hrs with shaking at 600 rpm. 300 μL of solution containing 5% high-capacity streptavidin agarose slurry in 25 mM Tris-HCl pH 7.5, 150 mM NaCl, and 0.1% NP-40 then added. The plate was incubated at 25° C. for 2 hrs with shaking at 600 rpm. Samples were transferred to 25 μm filter plate and spin at 1000 rpm for 2 min. Samples were then washed 3 times with 0.75 mL of wash buffer (25 mM Tris-HCl pH 7.5, 150 mM NaCl, and 0.1% NP-40) followed by washing 3 times with 0.75 mL PBS, and then 4 times with 0.75 mL water. After the washing step, samples were eluted into polypropylene 96-well plate by addition of 250 µL of 50% MeCN/water, 0.1% formic acid and allowed to gravity drip for 10 min, followed by centrifugation at 1000 rpm for 2 min. Speedvac was used to dry the plates at about 45° C. for […]. Then the plates were covered with foil seal and stored at −20° C.
(§4) Samples were resuspended by addition of 20 μl of 12.5% ACN, 0.1% formic acid solution, covered with foil seal, and incubated at 42° C. for 10 minutes with shaking at 600 rpm. Then add 30 μL of 0.1% formic acid solution was added and the plate was covered and incubated at 42° C. for 10 minutes with shaking at 600 rpm. Seal plate was then sealed with a 96-well silicon mat for analysis.

Assay [2] deals with T2, PCGF2 Polycomb group RING finger protein 2 (Homo sapiens, UniProt P35227).
T2 construct: Cells were resuspended in cold PBS on ice and sonicated with a probe sonicator to achieve lysis; endogenous in cells
T2 sequence (P35227 1-344): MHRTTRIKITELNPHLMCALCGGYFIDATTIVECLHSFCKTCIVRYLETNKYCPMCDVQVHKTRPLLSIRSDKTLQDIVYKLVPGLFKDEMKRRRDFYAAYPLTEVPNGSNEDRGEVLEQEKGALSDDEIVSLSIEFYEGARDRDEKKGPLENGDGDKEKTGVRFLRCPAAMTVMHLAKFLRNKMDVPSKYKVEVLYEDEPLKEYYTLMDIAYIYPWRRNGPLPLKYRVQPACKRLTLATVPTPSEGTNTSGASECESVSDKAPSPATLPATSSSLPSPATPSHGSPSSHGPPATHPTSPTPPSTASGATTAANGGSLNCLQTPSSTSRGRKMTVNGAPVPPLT
The assay can be described thus: Cysteine liganding, probe competition. It is filed as binding. The protocol: as §1, §2, §3, §4

Take `O=C(CCl)Nc1cc(C(F)(F)F)cc(C(F)(F)F)c1` [KBO3]: the “KB03_100 uM_percent_inhibition” value in assay [1] (100 uM, UniProt O15033) is given as 57%; in assay [2] (UniProt P35227, 100 uM), 37%. Besides, the “KB03_500 uM_percent_inhibition” value in assay [1] (500 uM, UniProt O15033) is 87%. The “100 Max” value is 56.8 in assay [1] (uniprot O15033) and 5.9% in assay [2] (uniprot P35227, unit assumed). The 100 ave in assay [1] (uniprot O15033) is recorded as 49.1; in assay [2] (uniprot P35227), −4.4. Moreover, the figures for the 500 ave in assay [1] (uniprot O15033) and in assay [2] (uniprot P35227) were 55.1 and 35.9, respectively. In addition, the 500 Max in assay [1] (uniprot O15033, unit assumed) was determined as 55.1%; in assay [2] (uniprot P35227, unit assumed), 49.9%.

Consider `COc1ccc2c(c1)CCCN2C(=O)CCl` [KB02], for which the inhibition at 100 µM in assay [1] (100 uM, UniProt O15033, read-out: KB02_100 uM_percent_inhibition) came out at 77%. The inhibition at 500 µM in assay [1] (500 uM, UniProt O15033, read-out: KB02_500 uM_percent_inhibition) turned out to be 96%. Further, the Liganded entry in assay [1] (AREL1 Res# 382, uniprot O15033) is “YES”; in assay [2] (PCGF2 Res# 233, uniprot P35227), “YES”.

Consider `C=CC(=O)N(c1ccccc1)c1ccc(Br)cc1` [KB05], for which the inhibition at 100 µM in assay [1] (100 uM, UniProt O15033, read-out: KB05_100 uM_percent_inhibition) came out at 69%; in assay [2] (UniProt P35227, 100 uM, read-out: KB05_100 uM_percent_inhibition), 28%. The inhibition at 500 µM in assay [1] (500 uM, UniProt O15033, read-out: KB05_500 uM_percent_inhibition) was 92%. The “KB05_100 uM_percent_inhibition” value in assay [2] (UniProt P35227, 100 uM) came to 29%.

Values taken from patent publication US20200239530A1, “COMPOUNDS AND METHODS OF MODULATING PROTEIN DEGRADATION” (Vividion Therapeutics, Inc., priority 2017, published 2020).
